Measurements as given in ChEMBL document CHEMBL5338807, “Design and Synthesis of Bouchardatine Derivatives as a Novel AMP-Activated Protein Kinase Activator for the Treatment of Colorectal Cancer” (J Med Chem, 2023).
The source made the active and inactive calls. The rule behind the calls is not given here.

Tests used:
[1] = test system: RKO; assay: Effect on energy metabolism in human RKO cells assessed as decrease in ATP production incubated for 24 hrs by luminescence based analysis; format: functional, cell-based
[2] = test system: RKO; assay: Effect on metabolism in human RKO cells assessed as inhibition of oxidative phosphorylation at 50 mM measured after 24 hrs by seahorse analysis; format: functional, cell-based
[3] = test system: RKO; assay: Antiproliferative activity against human RKO cells assessed as reduction in cell viability incubated for 24 hrs; format: functional, cell-based
[4] = test system: HCT-116; assay: Antiproliferative activity against human HCT-116 cells assessed as reduction in cell viability incubated for 24 hrs; format: functional, cell-based; details: HCT-116, 24 h
[5] = Cytotoxicity against human NCM460 cells assessed as reduction in cell viability incubated for 24 hrs; format: toxicity, cell-based
[6] = test system: RKO; assay: Antiproliferative activity against human RKO cells assessed as reduction in cell viability incubated for 24 hrs by propidium iodide staining based high-content screening method relative to control; format: functional
[7] = test system: RKO; assay: Effect on energy metabolism in human RKO cells assessed as increase in mitochondrial membrane potential at 0.1 uM incubated for 24 hrs by rhodamine 123 staining based flow cytometric analysis; format: functional, cell-based
[8] = test system: NCM460; assay: Effect on metabolism in human NCM460 cells assessed as change in extracellular acidification rate at 0.1 uM measured after 24 hrs by seahorse analysis; format: functional, cell-based
[9] = Toxicity in BALB/nude mouse xenografted with human RKO cells assessed as body weight loss at 10 mg/kg, ip administered once daily for 25 days; format: organism-based; details: in vivo, 600 h, time 25 day
[10] = test system: RKO; assay: Effect on metabolism in human RKO cells assessed as oxygen consumption rate by measuring enhancement of maximal respiration at 0.1 uM measured after 24 hrs by seahorse analysis; format: functional, cell-based
[11] = test system: DLD-1; assay: Antiproliferative activity against human DLD-1 cells assessed as reduction in cell viability incubated for 24 hrs; format: functional, cell-based; details: DLD-1, 24 h
[12] = test system: RKO; assay: Effect on energy metabolism in human RKO cells assessed as upregulation of ATP production incubated for 24 hrs by luminescence based analysis; format: functional, cell-based
[13] = test system: RKO; assay: Antiproliferative activity against human RKO cells assessed as reduction in cell viability incubated for 24 hrs in presence of oligomycin by propidium iodide staining based high-content screening method relative to control; format: functional
[14] = test system: RKO; assay: Effect on metabolism in human RKO cells assessed as oxygen consumption rate by measuring enhancement of basal respiration at 0.1 uM measured after 24 hrs by seahorse analysis; format: functional, cell-based
[15] = test system: RKO; assay: Antiproliferative activity against human RKO cells assessed as cell killing at 0.5 uM measured after 16 hrs by RTCA assay; format: functional, cell-based
[16] = test system: RKO; assay: Effect on energy metabolism in human RKO cells assessed as increase in AMP level incubated for 24 hrs by luminescence based analysis; format: functional, cell-based
[17] = test system: RKO; assay: Antiproliferative activity against human RKO cells assessed as reduction in cell viability incubated for 24 hrs by propidium iodide staining based high-content screening method; format: functional
[18] = test system: RKO; assay: Upregulation of mitochondrial complex III in human RKO cells at 0.1 uM incubated for 24 hrs by Western blotting analysis; format: functional, cell-based
[19] = test system: RKO; assay: Antiproliferative activity against human RKO cells assessed as reduction in cell density at 0.1 uM measured after 16 hrs by RTCA assay; format: functional, cell-based
[20] = test system: RKO; assay: Inhibition of cell migration of human RKO cells at 0.1 uM incubated for 48 hrs by wound healing assay; format: functional, cell-based
[21] = test system: RKO; assay: Effect on metabolism in human RKO cells assessed as oxygen consumption rate by measuring enhancement of ATP production at 0.1 uM measured after 24 hrs by seahorse analysis; format: functional, cell-based
[22] = test system: RKO; assay: Induction of mitochondrial damage in human RKO cells assessed as decrease in ROS level at 0.1 uM incubated for 24 hrs by DCFH-DA staining based flow cytometric analysis; format: functional, cell-based
[23] = test system: RKO; assay: Effect on metabolism in human RKO cells assessed as enhancement of oxygen consumption rate at 0.1 uM measured after 24 hrs by seahorse analysis; format: functional, cell-based
[24] = test system: RKO; assay: Antiproliferative activity against human RKO cells assessed as reduction in cell viability incubated for 24 hrs in presence of FCCP by propidium iodide staining based high-content screening method relative to control; format: functional
[25] = test system: RKO; assay: Upregulation of mitochondrial complex V in human RKO cells at 0.1 uM incubated for 24 hrs by Western blotting analysis; format: functional, cell-based
[26] = Cytotoxicity against human LX2 cells assessed as reduction in cell viability incubated for 24 hrs; format: toxicity, cell-based; details: LX-2 cells
[27] = test system: RKO; assay: Upregulation of p-AMPK expression in human RKO cells at 0.1 uM incubated for 24 hrs by Western blotting analysis; format: functional, cell-based
[28] = Cytotoxicity against human L02 cells assessed as reduction in cell viability incubated for 24 hrs; format: toxicity, cell-based
[29] = test system: RKO; assay: Antiproliferative activity against human RKO cells assessed as reduction in cell viability incubated for 24 hrs in presence of FCCP by propidium iodide staining based high-content screening method; format: functional
[30] = test system: RKO; assay: Antitumor activity against human RKO cells xenografted in BALB/nude mouse assessed as activation of p-AMPKalpha at Thr172 residue in tumor tissue at 10 mg/kg, ip administered once daily for 25 days by immunohistochemical based microscopic analysis; format: functional, organism-based; details: time 25.0 day
[31] = test system: RKO; assay: Antitumor activity against human RKO cells xenografted in BALB/nude mouse assessed as tumor growth inhibition at 10 mg/kg, ip administered once daily for 25 days; format: functional; details: 600 h, time 25 day
[32] = test system: RKO; assay: Antiproliferative activity against human RKO cells assessed as inhibition of colony formation at 0.1 uM measured after 7 days by crystal violet staining based assay; format: functional, cell-based; details: time 7.0 day
[33] = test system: SW480; assay: Antiproliferative activity against human SW480 cells assessed as reduction in cell viability incubated for 24 hrs; format: functional, cell-based; details: SW480, 24 h
[34] = test system: RKO; assay: Effect on metabolism in human RKO cells assessed as oxygen consumption rate by measuring enhancement of proton leak at 0.1 uM measured after 24 hrs by seahorse analysis; format: functional, cell-based
[35] = test system: RKO; assay: Antiproliferative activity against human RKO cells assessed as reduction in cell viability incubated for 24 hrs in presence of oligomycin by propidium iodide staining based high-content screening method; format: functional
[36] = test system: RKO; assay: Effect on energy metabolism in human RKO cells assessed as decrease in AMP level incubated for 24 hrs by luminescence based analysis; format: functional, cell-based
[37] = test system: RKO; assay: Effect on metabolism in human RKO cells assessed as enhancement of oxidative phosphorylation at 2 mM measured after 24 hrs by seahorse analysis; format: functional, cell-based
[38] = test system: RKO; assay: Inhibition of cell migration of human RKO cells at 1 uM incubated for 48 hrs by wound healing assay; format: functional, cell-based
[39] = test system: RKO; assay: Antiproliferative activity against human RKO cells assessed as inhibition of colony formation at 1 uM measured after 7 days by crystal violet staining based assay; format: functional, cell-based; details: time 7.0 day
[40] = test system: RKO; assay: Effect on metabolism in human RKO cells assessed as activation of oxidative phosphorylation at 1 uM measured after 24 hrs by seahorse analysis; format: functional, cell-based

In the case of CN(C)C(=N)NC(=N)N, the Activity [1] is reported as “Active” and the inhibition [2] is reported as “Active”.
For CC(=O)c1c(-c2nc(NCCN(C)C)c3ccccc3n2)[nH]c2ccccc12, the IC50 [3] was greater than 10 µM.
CCC(=O)Nc1nc(-c2[nH]c3ccccc3c2C=O)nc2ccccc12 showed an IC50 [3] greater than 10 µM.
With COC(=O)c1c(-c2nc(NCCN3CCCC3)c3ccccc3n2)[nH]c2ccccc12 the IC50 [3] was 6.1 µM.
With O=Cc1c(-c2nc(NCCc3ccc(C(F)(F)F)cc3)c3ccccc3n2)[nH]c2ccccc12 the IC50 [3] was 4.2 µM.
O=Cc1c(-c2nc(NCC3CC3)c3ccccc3n2)[nH]c2ccccc12 gave an IC50 [3] of 4.8 µM.
With C=Cc1c(C)nc(-c2[nH]c3ccccc3c2C(C)=O)nc1NCCCN1CCCC1 the IC50 [3] was greater than 10 µM.
With CN(C)CCNc1nc(-c2[nH]c3ccc(F)cc3c2C=O)nc2ccccc12 the IC50 [3] was 1.7 µM.
In the case of CN(C)c1nc(-c2[nH]c3ccccc3c2C=O)nc2ccccc12, the IC50 [3] is reported as 4.8 µM.
CN(C)CCCNc1nc(-c2[nH]c3ccccc3c2C(=O)O)nc2ccccc12 showed an IC50 [3] of 5.3 µM.
CN(C)CC(C)(C)CNc1nc(-c2[nH]c3ccccc3c2C=O)nc2ccccc12 gave an IC50 [3] of 5.3 µM.
O=Cc1c(-c2nc(NCCN3CCCC3)c3ccccc3n2)[nH]c2ccc(Cl)cc12 gave an IC50 [3] of 2.5 µM.
CCCC(=O)Nc1nc(-c2[nH]c3ccccc3c2C=O)nc2ccccc12 showed an IC50 [3] greater than 10 µM.
For O=Cc1c(-c2nc(NCCc3ccc(O)cc3)c3ccccc3n2)[nH]c2ccccc12, the IC50 [4] was less than 1 µM, the IC50 at 24 h [5] was greater than 15 µM and the “inhibition (INH)” value [6] was 92%. For the same molecule, the Activity [7] was “Active”, the Activity [8] was “inactive” and the Activity [9] was “Non-Toxic”. The Activity [10] was “Active”, the IC50 [11] was less than 1 µM and the Activity [12] was “Active”. The “inhibition (INH)” value [13] was 52%, the Activity [14] was “Active” and the Activity [15] was “Active”. For the same molecule, the Activity [16] was “Active”, the IC50 [17] was 0.07 µM and the Activity [18] was “Active”. For the same molecule, the IC50 [3] was 0.1 µM, the Activity [19] was “Active” and the inhibition [20] was “Active”. For the same molecule, the Activity [21] was “Active”, the Activity [22] was “Active” and the Activity [23] was “Active”. For the same molecule, the “inhibition (INH)” value [24] was 25%, the Activity [25] was “Active” and the IC50 at 24 h [26] was greater than 15 µM. The Activity [27] was “Active”, the IC50 at 24 h [28] was greater than 15 µM and the IC50 [29] was greater than 1 µM. The Activity [30] was “Active”, the inhibition in vivo at 10 mg/kg [31] was 58.2% and the inhibition [32] was “Active”. For the same molecule, the IC50 [33] was less than 1 µM, the Activity [34] was “Active” and the IC50 [35] was greater than 1 µM.
With Cc1c(-c2nc(NCCN3CCCCC3)c3ccccc3n2)[nH]c2ccccc12 the IC50 [3] was greater than 10 µM.
For CN(C)CCCNc1nc(-c2[nH]c3ccc(Cl)cc3c2C=O)nc2ccccc12, the IC50 [3] was 4.1 µM.
With Cc1c(-c2nc(NCCCN3CCN(C)CC3)c3ccccc3n2)[nH]c2ccccc12 the IC50 [3] was greater than 10 µM.
O=Cc1c(-c2nc(NCCN3CCCC3)c3ccccc3n2)[nH]c2ccc(F)cc12 showed an IC50 [3] of 2.1 µM.
O=Cc1c(-c2nc(NCCCC(F)(F)F)c3ccccc3n2)[nH]c2ccccc12 gave an IC50 [3] of 4.6 µM.
Molecule Cc1ccc2[nH]c(-c3nc(NCCN(C)C)c4ccccc4n3)c(C=O)c2c1 has an IC50 [3] of 0.7 µM.
With NC(=O)c1ncn([C@@H]2O[C@H](CO)[C@@H](O)[C@H]2O)c1N the Activity [36] was “Active”, the Activity [1] was “Active” and the Activity [37] was “Active”.
For Cc1ccc2[nH]c(-c3nc(NCCN4CCCC4)c4ccccc4n3)c(C=O)c2c1, the inhibition [38] was “Active”, the inhibition [39] was “Active” and the Activity [40] was “Active”. It also gave an IC50 [3] of 0.7 µM.
CC(C)(C)OC(=O)NCCCNc1nc(-c2[nH]c3ccccc3c2C=O)nc2ccccc12 showed an IC50 [3] of 5.4 µM.
In the case of CN(C)CCCNc1nc(-c2[nH]c3ccccc3c2C=O)nc2ccccc12, the inhibition [38] is reported as “Active”, the inhibition [39] is reported as “Active” and the Activity [40] is reported as “Active”. For the same molecule, the IC50 [3] was 1.7 µM.
For COc1ccc2[nH]c(-c3nc(NCCCN(C)C)c4ccccc4n3)c(C=O)c2c1, the IC50 [3] was 8.1 µM.
Cc1ccc(S(=O)(=O)Nc2nc(-c3[nH]c4ccccc4c3C=O)nc3ccccc23)cc1 showed an IC50 [3] greater than 10 µM.
With CN(C)CCNc1nc(-c2[nH]c3ccc(Cl)cc3c2C=O)nc2ccccc12 the IC50 [3] was 5.3 µM.
